Data reported in patent publication US20080051285A1 (priority 2004, published 2008).
Like-named read-outs stand apart in the source and are kept apart here.

Test system: Pyricularia oryzae
Assay type: in vivo
Details: individual active compound, protective, inoculated next day, assessed after 6 days

| SMILES | Efficacy in % of the untreated control (1 ppm in the spray liquor) [%] | Efficacy in % of the untreated control (4 ppm in the spray liquor) [%] |
| --- | --- | --- |
| CC1CCN(c2c(-c3c(F)cccc3Cl)c(Cl)nc3ncnn23)CC1 [A] | 0 | 13 |
| C[C@H](Nc1c(-c2c(F)cc(F)cc2F)c(Cl)nc2ncnn12)C(F)(F)F [B] | 13 | 57 |
| CC1CCN(c2c(-c3c(F)cc(F)cc3F)c(Cl)nc3ncnn23)CC1 [compound I, 5-chloro-7-(4-methylpiperidin-1-yl)-6-(2,4,6-trifluorophenyl)-[1,2,4]tri-azolo[1,5-a]pyrimidine] | 13 | 28 |
| C=CC1(C)OC(=O)N(c2cc(Cl)cc(Cl)c2)C1=O (centres unmarked) [compound II, 3-(3,5-dichlorophenyl)-5-methyl-5-vinyloxazolidine-2,4-dione] | 0 | 0 |
